Measurements: patent US12492373B2, “Production method for nerve tissue” (Racthera Co., Ltd., priority 2014, dated 2025)

Assays:
Assay type in all cases: cell-based
[1] = test system: human iPS cells (1231A3 strain); experiment: Bright field observation of feeder-free cultured human iPS cells after preconditioning
Procedure: As a specific example of preconditioning in step 1 of the production method of the present invention, the following operation was performed. First, the subconfluent human iPS cells (1231A3 strain) were washed with PBS, and dispersed into single cells by using TrypLE Select (manufactured by Life Technologies). Thereafter, the above human iPS cells dispersed into single cells were seeded in a plastic culture dish (manufactured by Iwaki) coated with Laminin 511-E8, […] (ROCK inhibiting substance, 10 μM). When a 6-well plate (manufactured by Iwaki, culture area 9.4 cm^2) was used as the above plastic culture dish, the number of plated cells for the above human iPS cells dispersed into single cells was set to 6×10^3. When a 60 mm dish (manufactured by Iwaki, culture area 21 cm^2) was used as the above plastic culture dish, the number of plated cells for the above human iPS cells dispersed into single cells was set to 13×10^3. One day after seeding, the medium was changed to StemFit medium free of Y27632. Thereafter, once in 1-2 days, the medium was changed to StemFit medium free of Y27632. Thereafter, the cells were cultured until 5 days after seeding, namely, one day before subconfluence (50% of culture area is covered with cells). Even when cultured for 6 days after seeding, similar results are shown. The human iPS cells one day before subconfluence in the above feeder-free culturing were subjected to feeder-free culturing in the presence of SB431542 (TGFβR inhibitor (TGFβRi), 5 μM) (step 1: preconditioning treatment, FIG. 1 “Precondition TGFβRi 24 hr”), or in the absence thereof (step 1: without precondition treatment, FIG. 1 “Control”) for 1 day. The bright field observation of cultured cells was performed under an inverted microscope (KEYENCE). […] As a preconditioning operation, subconfluent human iPS cells (1231A3 strain) were first washed with PBS, and dispersed into single cells by using TrypLE Select (manufactured by Life Technologies). […]

[2] = test system: human iPS cells (1231A3 strain); experiment: Immunostaining of aggregate sections for neural tissue markers Nestin, TuJ1, PSA-NCAM
From the text: Furthermore, cell aggregates on day 23 after the start of suspension culturing, which were produced from the above iPS cells that underwent a preconditioning treatment as a starting material (conditions of FIG. 5B) were fixed with 4% para-formaldehyde to prepare frozen sections. […] Furthermore, it could be confirmed from the analysis of serial sections, that the regions that could be determined to be neural tissue by morphology observation in the bright field under an inverted microscope were Nestin-positive, TuJ1-positive, and PSA-NCAM-positive (FIG. 5C-E).
Furthermore, the above cell aggregates on day 23 after the start of suspension culturing, which were produced from the above iPS cells that underwent a preconditioning treatment with TGFβR inhibitor (SB431542) or BMPR inhibitor (LDN193189) as a starting material were fixed with 4% para-formaldehyde to prepare frozen sections. […] Furthermore, it could be confirmed from the analysis of serial sections, that the regions that could be identified to be neural tissue by morphology observation in the bright field images were Nestin-positive, TuJ1-positive, and PSA-NCAM-positive (FIG. 8A-F).
Cell aggregates were prepared according to the method described in Example 10 by using, as a starting material, human iPS cells using Essential 8 medium as a feeder-free culturing, TGFβR inhibiting substance (SB431542) in step 1, and a Shh signal transduction pathway activating substance in step 2. The cell aggregates on day 18 after the start of suspension culturing were fixed with 4% para-formaldehyde to prepare frozen section. […] Furthermore, it could be confirmed from the analysis of serial sections, that the regions that could be identified to be neural tissue by morphology observation in the bright field images were Nestin-positive, TuJ1-positive, and PSA-NCAM-positive (FIG. 11).

[3] = test system: human iPS cells (1231A3 strain); experiment: Form of cell aggregate in suspension culturing, bright field observation (good / medium / bad form); details: step 1 for 1 day: SB431542 5 μM or LDN193189 100 nM; day 9
[4] = 1 day in Essential 8 medium, SB431542 5 μM, LDN193189 100 nM, or both
[5] = Essential 8 medium, SB431542 in step 1, SAG in step 2, day 18
[6] = SB431542 5 μM or LDN193189 100 nM in step 1, SAG 300 nM in step 2, StemFit, day 23
[7] = LDN193189 100 nM in step 1, no SAG in step 2, StemFit, day 23

| SMILES | morphology of human iPS cell [1, 4] | morphology of human iPS cell ([1]; SB431542 5 μM for 1 day during feeder-free culturing in StemFit medium) | proportion of Nestin-positive cells in the total cells [2, 5] | proportion of PSA-NCAM-positive cells [2, 5] | proportion of TuJ1-positive cells in the total cells [2, 5] | proportion of Nestin-positive cells in the total cells [2, 6] | proportion of PSA-NCAM-positive cells [2, 6] | proportion of TuJ1-positive cells in the total cells [2, 6] | shape of cell aggregate in step 3 compared with untreated group [3] | proportion of Nestin-positive cells in the total cells [2, 7] | proportion of PSA-NCAM-positive cells in the total cells [2, 7] | proportion of TuJ1-positive cells in the total cells [2, 7] |
| --- | --- | --- | --- | --- | --- | --- | --- | --- | --- | --- | --- | --- |
| NC(=O)c1ccc(-c2nc(-c3ccc4c(c3)OCO4)c(-c3ccccn3)[nH]2)cc1 [SB431542, 4-(5-benzol[1,3]dioxol-5-yl-4-pyridin-2-yl-1H-imidazol-2-yl)-benzamide] | not largely influenced | not largely influenced | about 30% | about 70% | about 70% | about 20% | about 70% | about 70% | good shape of cell aggregate |  |  |  |
| c1ccc2c(-c3cnn4cc(-c5ccc(N6CCNCC6)cc5)cnc34)ccnc2c1 [LDN193189, 4-[6-(4-piperazin-1-ylphenyl)pyrazolo[1,5-a]pyrimidin-3-yl]quinoline] | not largely influenced |  |  |  |  | about 20% | about 70% | about 70% | good shape of a cell aggregate | about 20% | about 70% | about 70% |
